Test results reported in US4866040A, “Aminocarnitine directed pharmaceutical agents” (priority 1987, dated 1989).
Square brackets hold non-standard residues; d marks the D form. Peptide text beside a SMILES is read from it. Cya = N[CH](CS(=O)(=O)O)C(=O)O

Key:
[1] = system: platelet Ca-activated protease; assay: inhibition of platelet Ca-activated protease; type: biochemical; details: final in-vitro conc. 1 mM
Description: The following results were obtained for inhibition of platelet Ca-activated protease: […]

[2] = in vivo, po; cited from earlier work
Ca-activated protease = assay: in vitro inhibition of Ca-activated protease; type: biochemical; details: for % of Control (Ca-activated protease activity): in vitro, 100 ug; for % of Control (Ca-activated protease activity) after hydrolysis: 100ug, hydrolysis at 60° C., pH 2
Description: It has been shown that in vitro carnitylleucylargininal inhibits Ca-activated protease as well as leupeptin, viz.

[3] = active transport; cited from earlier work
[4] = system: muscle Ca-activated protease; assay: in-vivo administration, inhibition of muscle Ca-activated protease; parameters: species or system rats; details: for % Inhibition of muscle Ca-activated protease: 2 hours post IP injection

Row | Compound | % Inhibition of platelet Ca-activated protease [1] [%] | % of Control (Ca-activated protease activity) (Ca-activated protease) [%] | other results
1 | N[C@@H](CS(=O)(=O)O)C(=O)O [Cysteic acid (CDI treated), cysteic acid] | 0 | – | –
2 | C[N+](C)(C)C[C@H](N)CC(=O)[O-] [aminocarnitine] | – | – | toxicity when fed orally [2]: non-toxic
3 | C[N+](C)(C)CC(O)CC(=O)[O-] (stereo not shown) [carnitine] | – | 84 | concentration in cardiac and skeletal muscle relative to plasma [3]: 50-100 times
4 | CC(C)CC(NC(=O)C(N)CS(=O)(=O)O)C(=O)NC(C=O)CCCNC(=N)N (stereo not drawn) [cysteicleucylargininal] (H-[Cya]-Leu-Arg-aldehyde; configuration not given here) | 98 | – | –
5 | CC(C)C[C@H](N)C(=O)N[C@H](C=O)CCCNC(=N)N [leucylargininal, leucyl argininal] | 94 | – | –
6 | CC(=O)N[C@@H](CC(C)C)C(=O)N[C@@H](CC(C)C)C(=O)N[C@H](C=O)CCCNC(=N)N [leupeptin] | 98 | 7.9 | % Inhibition of muscle Ca-activated protease ([4]; 74 umoles): 20%
7 | E-aminoadipic acid [E-aminoadipic acid (CDI treated)] | 0 | – | –
8 | carnitylleucylargininal | – | 4.6 | % Inhibition of muscle Ca-activated protease ([4]; 19 umoles): 48%; effectiveness per umole relative to leupeptin in inhibiting Ca-activated protease in skeletal muscle ([4]; injected into rats): about ten times more effective per umole
9 | carnitylleucylargininal dibutylacetal | – | – | % of Control (Ca-activated protease activity) after hydrolysis (Ca-activated protease; 0 time): 17%; % of Control (Ca-activated protease activity) after hydrolysis (Ca-activated protease; 3 hours): 1.2%; % of Control (Ca-activated protease activity) after hydrolysis (Ca-activated protease; 24 hours): 100%
